Laboratory results taken from PubChem BioAssay (NCI).
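The compound was tested at five concentrations on cells cultured in 96-well plates, with a 48-hour exposure period. GI50 marks 50% less growth. The concentration for full growth arrest is given as TGI.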

Experiments:
Assay in all cases: NCI tumour cell line growth inhibition, 48 h
NCI-H23 lung = tested on: NCI-H23 lung
HCC-2998 colon = tested on: HCC-2998 colon
MCF7 breast = tested on: MCF7 breast
COLO 205 colon = tested on: COLO 205 colon
KM12 colon = tested on: KM12 colon
OVCAR-3 ovarian = tested on: OVCAR-3 ovarian
MDA-MB-231 breast = tested on: MDA-MB-231 breast
UACC-257 melanoma = tested on: UACC-257 melanoma
SK-MEL-28 melanoma = tested on: SK-MEL-28 melanoma
MDA-MB-435 = tested on: MDA-MB-435
TK-10 renal = tested on: TK-10 renal
HCT-116 colon = tested on: HCT-116 colon
UO-31 renal = tested on: UO-31 renal
SW-620 colon = tested on: SW-620 colon
RXF 393 renal = tested on: RXF 393 renal
NCI-H522 lung = tested on: NCI-H522 lung
DU-145 prostate = tested on: DU-145 prostate
SK-MEL-2 melanoma = tested on: SK-MEL-2 melanoma
SF-268 CNS = tested on: SF-268 CNS
SK-MEL-5 melanoma = tested on: SK-MEL-5 melanoma
PC-3 prostate = tested on: PC-3 prostate
NCI-H460 lung = tested on: NCI-H460 lung
HOP-92 NSCLC = tested on: HOP-92 NSCLC
HT29 colon = tested on: HT29 colon
HS 578T breast = tested on: HS 578T breast
SF-295 CNS = tested on: SF-295 CNS
M14 melanoma = tested on: M14 melanoma
BT-549 breast = tested on: BT-549 breast
SK-OV-3 ovarian = tested on: SK-OV-3 ovarian
HCT-15 colon = tested on: HCT-15 colon
A549 NSCLC = tested on: A549 NSCLC
T-47D breast = tested on: T-47D breast
UACC-62 melanoma = tested on: UACC-62 melanoma
HOP-62 NSCLC = tested on: HOP-62 NSCLC
LOX IMVI melanoma = tested on: LOX IMVI melanoma
RPMI-8226 leukemia = tested on: RPMI-8226 leukemia
NCI-H226 lung = tested on: NCI-H226 lung
IGROV1 ovarian = tested on: IGROV1 ovarian
HL-60(TB) leukemia = tested on: HL-60(TB) leukemia
MOLT-4 leukemia = tested on: MOLT-4 leukemia
A498 renal = tested on: A498 renal
OVCAR-5 ovarian = tested on: OVCAR-5 ovarian
SN12C renal = tested on: SN12C renal
786-0 renal = tested on: 786-0 renal
SF-539 CNS = tested on: SF-539 CNS
ACHN renal = tested on: ACHN renal
CCRF-CEM leukemia = tested on: CCRF-CEM leukemia
U251 CNS = tested on: U251 CNS
OVCAR-8 ovarian = tested on: OVCAR-8 ovarian
MALME-3M melanoma = tested on: MALME-3M melanoma
SNB-19 CNS = tested on: SNB-19 CNS
K-562 leukemia = tested on: K-562 leukemia
SR leukemia = tested on: SR leukemia

CSCCCNC(=O)c1ccc2c(c1)/C(=C/c1[nH]c(C)cc1C)C(=O)N2
GI50 (NCI-H23 lung): 1.59 µM
TGI (NCI-H23 lung): > 100 µM
GI50 (HCC-2998 colon): 4.95 µM
TGI (HCC-2998 colon): > 100 µM
GI50 (MCF7 breast): 4.05 µM
TGI (MCF7 breast): > 100 µM
GI50 (COLO 205 colon): 0.943 µM
TGI (COLO 205 colon): > 100 µM
GI50 (KM12 colon): 0.43 µM
TGI (KM12 colon): > 100 µM
GI50 (OVCAR-3 ovarian): 1.98 µM
TGI (OVCAR-3 ovarian): > 100 µM
GI50 (MDA-MB-231 breast): 2.87 µM
TGI (MDA-MB-231 breast): > 100 µM
GI50 (UACC-257 melanoma): 4.67 µM
TGI (UACC-257 melanoma): > 100 µM
GI50 (SK-MEL-28 melanoma): 1.65 µM
TGI (SK-MEL-28 melanoma): > 100 µM
GI50 (MDA-MB-435): 0.856 µM
TGI (MDA-MB-435): > 100 µM
GI50 (TK-10 renal): 6.44 µM
TGI (TK-10 renal): > 100 µM
GI50 (HCT-116 colon): 0.548 µM
TGI (HCT-116 colon): > 100 µM
GI50 (UO-31 renal): 0.347 µM
TGI (UO-31 renal): > 100 µM
GI50 (SW-620 colon): 0.846 µM
TGI (SW-620 colon): > 100 µM
GI50 (RXF 393 renal): 0.977 µM
TGI (RXF 393 renal): 37.1 µM
GI50 (NCI-H522 lung): 0.843 µM
TGI (NCI-H522 lung): > 100 µM
GI50 (DU-145 prostate): 0.7 µM
TGI (DU-145 prostate): > 100 µM
GI50 (SK-MEL-2 melanoma): 0.356 µM
TGI (SK-MEL-2 melanoma): 4.42 µM
GI50 (SF-268 CNS): 1.98 µM
TGI (SF-268 CNS): > 100 µM
GI50 (SK-MEL-5 melanoma): 1.57 µM
TGI (SK-MEL-5 melanoma): > 100 µM
GI50 (PC-3 prostate): 0.647 µM
TGI (PC-3 prostate): > 100 µM
GI50 (NCI-H460 lung): 0.872 µM
TGI (NCI-H460 lung): > 100 µM
GI50 (HOP-92 NSCLC): 1.03 µM
TGI (HOP-92 NSCLC): > 100 µM
GI50 (HT29 colon): 4.95 µM
TGI (HT29 colon): > 100 µM
GI50 (HS 578T breast): 0.853 µM
TGI (HS 578T breast): > 100 µM
GI50 (SF-295 CNS): 2.15 µM
TGI (SF-295 CNS): > 100 µM
GI50 (M14 melanoma): 0.284 µM
TGI (M14 melanoma): > 100 µM
GI50 (BT-549 breast): 2.7 µM
TGI (BT-549 breast): > 100 µM
GI50 (SK-OV-3 ovarian): 0.366 µM
TGI (SK-OV-3 ovarian): 62.8 µM
GI50 (HCT-15 colon): 0.44 µM
TGI (HCT-15 colon): > 100 µM
GI50 (A549 NSCLC): 2.75 µM
TGI (A549 NSCLC): > 100 µM
GI50 (T-47D breast): 0.465 µM
TGI (T-47D breast): > 100 µM
GI50 (UACC-62 melanoma): 0.687 µM
TGI (UACC-62 melanoma): > 100 µM
GI50 (HOP-62 NSCLC): 0.286 µM
TGI (HOP-62 NSCLC): > 100 µM
GI50 (LOX IMVI melanoma): 1.02 µM
TGI (LOX IMVI melanoma): > 100 µM
GI50 (RPMI-8226 leukemia): 1.68 µM
TGI (RPMI-8226 leukemia): > 100 µM
GI50 (NCI-H226 lung): 2.24 µM
TGI (NCI-H226 lung): > 100 µM
GI50 (IGROV1 ovarian): 0.421 µM
TGI (IGROV1 ovarian): > 100 µM
GI50 (HL-60(TB) leukemia): 2.54 µM
TGI (HL-60(TB) leukemia): > 100 µM
GI50 (MOLT-4 leukemia): 1.7 µM
TGI (MOLT-4 leukemia): > 100 µM
GI50 (A498 renal): 0.47 µM
TGI (A498 renal): 2.7 µM
GI50 (OVCAR-5 ovarian): 3.85 µM
TGI (OVCAR-5 ovarian): > 100 µM
GI50 (SN12C renal): 0.571 µM
TGI (SN12C renal): > 100 µM
GI50 (786-0 renal): 1.93 µM
TGI (786-0 renal): > 100 µM
GI50 (SF-539 CNS): 0.734 µM
TGI (SF-539 CNS): > 100 µM
GI50 (ACHN renal): 0.299 µM
TGI (ACHN renal): > 100 µM
GI50 (CCRF-CEM leukemia): 4.36 µM
TGI (CCRF-CEM leukemia): > 100 µM
GI50 (U251 CNS): 0.675 µM
TGI (U251 CNS): > 100 µM
GI50 (OVCAR-8 ovarian): 1.95 µM
TGI (OVCAR-8 ovarian): > 100 µM
GI50 (MALME-3M melanoma): 0.597 µM
TGI (MALME-3M melanoma): > 100 µM
GI50 (SNB-19 CNS): 25.6 µM
TGI (SNB-19 CNS): > 100 µM
GI50 (K-562 leukemia): 2.01 µM
TGI (K-562 leukemia): > 100 µM
GI50 (SR leukemia): 0.476 µM
TGI (SR leukemia): 61.4 µM
